According to patent US20130129626A1, “IN VIVO IMAGING AGENTS” (H[…] LIMITED, priority 2006, published 2013):

What was measured:
CCR2B = target: T1, CCR2B (Homo sapiens, UniProt P41597); experiment: CCR2B binding assay ([125I]-MCP-1 displacement)
T1 construct: expressed in transfected cells; host or cells: CHO-K1
T1 sequence (P41597 1-360 isoform P41597-2): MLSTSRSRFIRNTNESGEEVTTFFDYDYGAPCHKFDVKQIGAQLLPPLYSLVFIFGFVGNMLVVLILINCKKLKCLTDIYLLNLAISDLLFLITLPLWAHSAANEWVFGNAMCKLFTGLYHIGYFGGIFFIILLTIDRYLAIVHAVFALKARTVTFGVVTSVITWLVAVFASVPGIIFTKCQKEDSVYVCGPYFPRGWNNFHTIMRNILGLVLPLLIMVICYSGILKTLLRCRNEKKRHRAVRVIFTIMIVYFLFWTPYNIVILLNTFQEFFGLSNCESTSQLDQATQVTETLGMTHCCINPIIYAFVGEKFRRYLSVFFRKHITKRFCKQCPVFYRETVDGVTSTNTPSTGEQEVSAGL
Protocol: CCR2B binding assay was performed under the following conditions, according to a method that was adapted from the literature [Gong et al., J. Biol. Chem., 272, 11682-5 (1997); Moore et al., J. Leukoc. Biol., 62, 911-5 (1997)].
Thus, Compound 8 was incubated for 1 hour at 25° C. in 25 mM HEPES, pH7.4 containing 1 mM CaCl2, 0.5% BSA, 5 mM MgCl2, 0.1% NaN3 and 1% DMSO with Human recombinant CHO-K1 cells in the presence of 0.1 nM [^125I]-MCP-1. MCP-1 is monocyte chemoattractant protein (the ligand of CCR2).

[1] = Parallel Artificial Membrane Permeability Assay (PAMPA); type: in vitro ADME; conditions: prediction of blood brain barrier penetration by passive diffusion, high Pe>4.0×10^-06, low Pe<2.0×10^-06 cm/sec
Protocol: The permeability of the CCR compounds was measured in a Parallel Artificial Membrane Permeability Assay (PAMPA) which gives a prediction of the blood brain barrier penetration by passive diffusion [Di et al, Eur. J. Med. Chem., 38(3), 223-232 (2003)].
The commonly accepted classification ranges for this PAMPA assay are as follows: • High predicted passive BBB permeation: Pe>4.0×10^−06 cm/sec. • Low predicted passive BBB permeation: Pe<2.0×10^−06 cm/sec.
Uncertain prediction of BBB permeation: 2.0×10^−06 cm/sec<Pe<4.0×10^−06 cm/sec.

CCR5 = target: T2, CCR5 (Homo sapiens, UniProt P51681); experiment: CCR5 binding assay ([125I]-MIP-1β displacement)
T2 construct: expressed in transfected cells; host or cells: CHO-K1
T2 sequence (P51681 whole entry): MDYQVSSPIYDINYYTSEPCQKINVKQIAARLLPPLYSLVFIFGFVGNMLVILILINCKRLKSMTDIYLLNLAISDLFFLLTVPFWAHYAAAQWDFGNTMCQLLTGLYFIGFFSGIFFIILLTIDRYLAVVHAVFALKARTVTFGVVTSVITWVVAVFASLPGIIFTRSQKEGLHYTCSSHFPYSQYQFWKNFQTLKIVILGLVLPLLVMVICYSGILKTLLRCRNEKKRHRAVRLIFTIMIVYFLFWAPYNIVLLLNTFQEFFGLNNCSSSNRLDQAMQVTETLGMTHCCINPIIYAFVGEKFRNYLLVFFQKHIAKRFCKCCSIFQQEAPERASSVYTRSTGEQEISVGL
Protocol: CCR5 binding assay was performed under the following conditions, according to a method that was adapted from the literature [Samson et al., J. Biol. Chem., 272, 24934-41 (1997)].
Thus, Compound 8 was incubated for 2 hours at 25° C. in 50 mM HEPES, pH7.4 containing 1 mM CaCl2, 0.5% BSA, 5 mM MgCl2 and 1% DMSO with Human recombinant CHO-K1 cells in the presence of 0.1 nM [^125I]-MIP-1β, where MIP-1β is Macrophage Inflammatory Protein 1β.

CCR1 = target: T3, CCR1 (Homo sapiens, UniProt P32246); experiment: CCR1 binding assay ([125I]-MIP-1α displacement)
T3 construct: expressed in transfected cells; host or cells: CHO-K1
T3 sequence (P32246 1-355): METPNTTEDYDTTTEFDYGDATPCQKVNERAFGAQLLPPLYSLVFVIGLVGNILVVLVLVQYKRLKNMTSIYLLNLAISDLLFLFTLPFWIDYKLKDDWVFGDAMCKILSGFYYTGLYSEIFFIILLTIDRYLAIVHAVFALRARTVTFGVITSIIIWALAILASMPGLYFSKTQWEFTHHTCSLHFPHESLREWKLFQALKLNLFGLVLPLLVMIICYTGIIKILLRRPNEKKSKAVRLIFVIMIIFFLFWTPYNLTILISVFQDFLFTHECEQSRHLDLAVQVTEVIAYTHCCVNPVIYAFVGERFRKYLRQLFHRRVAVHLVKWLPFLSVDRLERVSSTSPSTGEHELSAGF
Protocol: The CCR1 binding assay was performed under the following conditions, according to a method that was adapted from the literature [Ben-Baruch et al., J. Biol. Chem., 270(38), 22123-8 (1995); Pease et al., J. Biol. Chem., 273(32), 19972-6 (1998)].
Thus, Compound 8 was incubated for 3 hours at 25° C. in 50 mM HEPES, pH7.4 containing 1 mM CaCl2, 0.5% BSA, 5 mM MgCl2 and 1% DMSO with Human recombinant CHO-K1 cells in the presence of 0.02 nM [^125I]-MIP-1α. MIP-1α is Macrophage Inflammatory Protein 1α (ligand of CCR1 and CCR5).

## Cc1ccc(N(CCCN2CCC(Cc3ccc(F)cc3)CC2)C(=O)C2CCN(C(=O)CF)CC2)cc1Cl [Compound 8]
CCR2B; 10 μM concentration, Human recombinant CHO-K1 cells, 0.1 nM [125I]-MCP-1, 1 hour at 25° C.
  inhibition of the binding of MCP-1 to CCR2B: did not inhibit
CCR2B; summary statement of Example 6
  CCR2B binding (in words): does not bind
[1]
  Papp: 6.8 ×10⁻⁶ cm/s
CCR5
  Ki: 0.79 nM
CCR5; compared with CCR1 and CCR2B binding at 10 μM
  selectivity for CCR5 over CCR1 and CCR2B (in words): selective for CCR5
CCR5; summary statement of Example 6
  CCR5 binding (in words): high affinity
CCR1; 10 μM Compound 8, Human recombinant CHO-K1 cells, 0.02 nM [125I]-MIP-1α, 3 hours at 25° C.
  inhibition at 10 µM: 32%
CCR1; summary statement of Example 6
  CCR1 binding (in words): does not bind
